Drawing on patent publication US3932423A, “Imidazolido(1,5-c)thiazolidine-3-spiro-4-piperidines” (Yoshitomi Pharmaceutical Industries, priority 1973, dated 1976), this text covers ED50, ED30 and LD50 for two molecules.

The test system of data set [1] is mice. Briefly: Suppression of Spontaneous Motility. It is filed as in vivo, dd-strain, male. As to conditions: Mus musculus, ip; counted for 20 minutes, 40 minutes after administration; dose for 50 percent suppression. Here is the method:
The spontaneous motility of mice was counted by magnetic counter of photocell method according to P. B. Dews in "British Gournal of Pharmacology", vol. 8, p. 46 ff. (1953). Forty minutes after the intraperitoneal administration of the test compound, the spontaneous motility was counted for 20 minutes.

Data set [2] relates to mice. Description: Suppression of Fighting Behavior. It is filed as in vivo, dd-strain, female. As to conditions: Mus musculus, po, 60 minutes prior to electric foot-shock; dose to suppress 50 percent of fighting pairs. How it is done:
125, p. 28 ff. (1959). […] The ED50, the dose required to suppress 50 percent of fighting pairs, was determined graphically.

The test system of data set [3] is mice. Briefly: Reserpine Potentiation. It is filed as in vivo, dd-strain, female. As to conditions: Mus musculus, po, 30 minutes before reserpine 10 mg./kg. i.p.; dose potentiating reserpine effect by 30 percent 15 minutes after reserpine; read-out: Reserpine Potentiation PD30. Here is the method:
Reserpine potentiation was measured by the method described by M. D. Aceto in "Toxicology and Applied Pharmacology," vol. 7, p. 329 ff. (1965). […] The degree of blepharoptosis of both eyes was observed 15, 60, 120 and 180 minutes after the administration of reserpine.

Data set [4] relates to mice. Briefly: Antimescaline Effect. It is filed as in vivo, female. Conditions: Mus musculus, po, 60 minutes prior to mescaline sulfate 30 mg./kg. i.p.; prevention of scratching in 50 percent of animals. How it is done:
A modification of the method of R. A. Turner [Screening Method in Pharmacology, Edited by R. A. Turner, p. 73, Academic Press (1965)] was used to study the prevention of scratching episodes induced by mescaline. The test compound was given to groups each of 6 female mice orally 60 minutes prior to treatment with mescaline sulfate (30 mg./kg. of body weight, intraperitoneal).

The nature of another data set: Acute Toxicity. The arrangement: species or system mice, female. Conditions: mouse, in vivo, po; lethal rate within two days. Here is the method:
The test compound was orally administered to groups each of 5 female mice respectively. The LD50 was calculated from the lethal rate (50 percent) within two days after administration of the test compound.

For data set [5], the system named is mice. Description: Methamphetamine Group Toxicity. Conditions: Mus musculus, po, 5 h, read-out: Methamphetamine Group Toxicity, ED50.

For the molecule `CN1C(=O)C2CSC3(CCN(CCCC(=O)c4ccc(F)cc4)CC3)N2C1=O` (stereo not drawn) [Compound A, 5,7-dioxo-6-methylimidazolido[1,5-c]thiazolidine-3-spiro-4'-[1'-(4-p-fluorophenyl-4-oxobutyl)piperidine]], the 50% effective dose (ED50) was found to be 0.1 mg/kg in the data set with mice [1], 2.6 mg/kg in the data set on mice [2], 0.1 mg/kg in the data set on mice [4] and 1.1 mg/kg with mice [5]. Moreover, the ED30 with mice [3] came out at 1.9 mg/kg. In the data set “Acute Toxicity”, this molecule had an LD50 at 48 h above 1000 mg/kg.
In the case of `NC(=O)C1(N2CCCCC2)CCN(CCCC(=O)c2ccc(F)cc2)CC1` [Floropipamide], the ED50 was determined as 1 mg/kg in the data set with mice [1], 5.6 mg/kg in the data set on mice [2], 1 mg/kg in the data set on mice [4] and 9.2 mg/kg in the data set with mice [5]. In addition, the ED30 with mice [3] was determined as 2.5 mg/kg. For the same molecule, the LD50 at 48 h in the data set “Acute Toxicity” is above 1000 mg/kg.

The ED50 is the dose that gives a 50% effect, or the effect in half of the subjects. One may read the LD50 as the dose expected to kill half of the subjects tested. Read a high LD50 as lower toxicity.
